One assay relates to B. anthracis. The assay is described as follows: microbe, parasite or virus in culture. Particulars: Bacillus anthracis, read-out: MIC B. anthracis. It counts as cell-based.
Another assay relates to B. pseudomallei. The assay is described as follows: microbe, parasite or virus in culture. It counts as cell-based. The settings on record: Burkholderia pseudomallei, read-out: MIC B. pseudomallei.
Another assay deals with F. tularensis. The assay is described as follows: microbe, parasite or virus in culture. It counts as cell-based. Particulars: Francisella tularensis, read-out: MIC F. tularensis.
The test system of another assay is B. abortus. The assay can be described thus: microbe, parasite or virus in culture. The class given is cell-based. Particulars: Brucella abortus, read-out: MIC B. abortus.
A further assay deals with B. thailandensis E264. The assay can be described thus: microbe, parasite or virus in culture. The class given is cell-based, Burkholderia thailandensis. The settings on record: Burkholderia thailandensis, E264, read-out: MIC B. thailandensis E264.
A further assay relates to S. aureus ATCC 25923. The assay can be described thus: MIC, selected panel of Gram-positive and Gram-negative strains (Example 5). The class given is cell-based. The settings on record: Staphylococcus aureus, ATCC25923; read-out: MIC S. aureus ATCC 25923.
The test system of a further assay is S. aureus 101. The assay can be described thus: MIC, standard panel of Gram-positive and Gram-negative bacteria (CLSI). It counts as cell-based, Staphylococcus aureus. The settings on record: Staphylococcus aureus, 101; CAMHB; read-out: MIC S. aureus 101.
Another assay deals with E. coli ATCC 25922. The assay is described as follows: MIC, selected panel of Gram-positive and Gram-negative strains (Example 5). The settings on record: Escherichia coli, ATCC25922; read-out: MIC E. coli ATCC 25922. It counts as cell-based, Escherichia coli.
For assay [1], the system named is S. aureus ATCC 43300 (MRSA, FQ-S). Described as above. The class given is cell-based, Staphylococcus aureus. The settings on record: Staphylococcus aureus; read-out: MIC S. aureus ATCC 43300 (MRSA, FQ-S).
The subject of a further assay is P. aeruginosa ATCC 27853. Described as above. It counts as cell-based. The settings on record: Pseudomonas aeruginosa, ATCC27853; read-out: MIC P. aeruginosa ATCC 27853.
The subject of assay [2] is S. aureus BAA-1556 (USA300-Type MRSA, FQ-R). The description is as above. The class given is cell-based, Staphylococcus aureus. Particulars: Staphylococcus aureus; read-out: MIC S. aureus BAA-1556 (USA300-Type MRSA, FQ-R).
The next assay deals with E. faecium 19434. The assay is described as follows: MIC, standard panel of Gram-positive and Gram-negative bacteria (CLSI). The settings on record: Enterococcus faecium, 19434; CAMHB; read-out: MIC E. faecium 19434. It counts as cell-based, Enterococcus faecium.
The next assay relates to S. aureus 25923 HS. The assay is described as above. The class given is cell-based. The settings on record: Staphylococcus aureus, CAMHB, HS, read-out: MIC S. aureus 25923 HS.
Another assay has as its system E. cloacae 13047. Described as above. The class given is cell-based, Enterobacter cloacae. Particulars: Enterobacter cloacae, 13047; CAMHB; read-out: MIC E. cloacae 13047.
Assay [3] concerns GN48 Klebsiella pneumoniae. The assay can be described thus: Chequerboard synergy with polymyxin B (FICI). The class given is cell-based. The settings on record: combination with polymyxin B. An excerpt: (§1) A chequerboard technique was used to identify possible synergistic or antagonistic interactions between the 4-oxoquinolizines compounds, levofloxacin and polymyxin B. Levofloxacin was included as a control. […] Final dilutions were made in Mueller-Hinton broth, the specific test medium used for MIC determinations according to CLSI guidelines (CLSI. Methods for Dilution Antimicrobial Susceptibility Tests for Bacteria That Grow Aerobically; Approved Standard-Eighth Edition (2009). CLSI Document M07-A8. CLSI, Wayne, Pa. 19087-1898, USA.). The test medium used was a cation-adjusted Mueller-Hinton Broth II (Becton Dickinson UK Ltd., Oxford Science Park, Oxford, UK, OX4 4DQ).
(§2) The compounds 2, 33 and 35, as well as levofloxacin were tested in combination with polymyxin B on the following isolates: GN31 Acinetobacter baumannii—antibiotic susceptible clinical isolate, GN52 Acinetobacter baumannii—levofloxacin resistant clinical isolate, GN56 Acinetobacter baumannii—levofloxacin resistant clinical isolate, GN48 Klebsiella pneumoniae—NCTC 13443—NDM-1-metallo-R-lactamase and GN10 Pseudomonas aeruginosa—ATCC 27853—antibiotic susceptible reference isolate. All isolates are from the collection maintained at Quotient Bioresearch Ltd., Cambridge, UK.
(§3) The MIC values for the compounds and polymyxin B and levofloxacin were determined by broth microdilution following CLSI guidelines, and the MICs of agents in combination were determined as described by Pillai et.al (Pillai S K, Moellering R C Jr, Eliopoulis G M; Antimicrobial Combinations in Antibiotics in Laboratory Medicine 5th Edition (V. Lorian Ed) (2005) p 365-440). Initial MIC results were used to determine the microtiter plate patterns for the chequerboards. A suitable doubling dilution concentration range was selected such that the combination antibiotic range was at least two concentrations above and four concentrations below the MIC for each isolate. A fixed range of 0.008 to 8 mg/L was tested for polymyxin B except in the case of A. baumannii GN31 where a range of 0.004 to 4 mg/L was tested when in combination with the compounds 2, 33 and 35 as well as levofloxacin.
(§4) From the raw data, fractional inhibitory concentration indices (FICI) were determined for the compounds of the invention and levofloxacin together with polymyxin B for each isolate as follows: FICI=FICX+FICY Where,
(§5) FICX=concentration of the combination antibiotic in a particular row÷MIC of the combination drug alone
(§6) FICY=MIC of polymyxin B in combination÷MIC of the polymyxin B alone
(§7) Additionally isobolograms were created to represent the same data visually. Here, the MIC of polymyxin B was plotted against every concentration of the combination antibiotic up to the MIC.

Assay [4] concerns GN48 Klebsiella pneumoniae. The assay is described as follows: Pre-chequerboard MIC, broth microdilution (Example 6). The class given is cell-based. The settings on record: GN48 / NCTC 13443, NCTC 13443, NDM-1.
Text: as §1, §2, §3
Background: In broth dilution the organism is exposed to a series of concentrations in liquid medium.

Assay [5] has as its system GN52 Acinetobacter baumannii. The assay is described as above. The class given is cell-based. The settings on record: levofloxacin resistant clinical isolate.
Text: as §1, §2, §3

Assay [6] relates to GN10 Pseudomonas aeruginosa. The assay is described as above. The class given is cell-based. The settings on record: ATCC 27853 / GN10, ATCC 27853, antibiotic susceptible.
Text: as §1, §2, §3

The next assay concerns E. faecalis 29212. The assay can be described thus: MIC, standard panel of Gram-positive and Gram-negative bacteria (CLSI). The class given is cell-based, Enterococcus faecalis. Particulars: Enterococcus faecalis, 29212; CAMHB; read-out: MIC E. faecalis 29212.
Assay [7] deals with GN10 Pseudomonas aeruginosa. The assay is described as follows: Chequerboard synergy with polymyxin B (FICI). It counts as cell-based. Particulars: combination with polymyxin B.
Text: as §1, §2, §3, §4, §5, §6, §7

The subject of the next assay is A. baumannii ATCC 19606. The assay can be described thus: MIC, selected panel of Gram-positive and Gram-negative strains (Example 5). The class given is cell-based, Acinetobacter baumannii. Particulars: Acinetobacter baumannii, ATCC19606; read-out: MIC A. baumannii ATCC 19606.
For assay [8], the system named is GN56 Acinetobacter baumannii. The assay is described as follows: Pre-chequerboard MIC, broth microdilution (Example 6). Particulars: levofloxacin resistant clinical isolate. The class given is cell-based.
Text: as §1, §2, §3

For assay [9], the system named is GN31 Acinetobacter baumannii. The assay is described as above. It counts as cell-based. The settings on record: antibiotic susceptible clinical isolate.
Text: as §1, §2, §3

In brackets after ≈: the same amount, converted by molar mass.

For the compound `Cc1c(-c2ccc(N)c(F)c2)ccn2c(=O)c(C(=O)O)cc(C3CC3)c12` [Compound 1, 8-(3-fluoro-4-amino-phenyl)-1-cyclopropyl-9-methyl-4-oxo-quinolizine-3-carboxylic acid], the MIC was < 8 ng/mL in the assay with B. anthracis, 0.125 µg/mL (≈ 0.355 µM) in the assay with B. pseudomallei, < 0.03 µg/mL with F. tularensis and 0.125 µg/mL (≈ 0.355 µM) in the assay on B. abortus.
As to `Cc1c(-c2ccc(CN)c(F)c2)ccn2c(=O)c(C(=O)O)cc(C3CC3)c12` [Compound 4, 8-(3-fluoro-4-aminomethyl-phenyl)-1-cyclopropyl-9-methyl-4-oxo-quinolizine-3-carboxylic acid], the MIC is 1 µg/mL (≈ 2.73 µM) with B. thailandensis E264; 0.064 µg/mL (≈ 0.175 µM) with S. aureus ATCC 25923; 4 µg/mL (≈ 10.9 µM) in the assay on S. aureus 101; 0.016 µg/mL (≈ 0.0437 µM) in the assay with E. coli ATCC 25922; 0.032 to 0.064 µg/mL (≈ 0.0873 to 0.175 µM) in [1]; 1 µg/mL (≈ 2.73 µM) in the assay on P. aeruginosa ATCC 27853. Further, the MIC stood at 0.5 µg/mL (≈ 1.36 µM) in assay [2] and 2 µg/mL (≈ 5.46 µM) in the assay on E. faecium 19434.
With `Cc1c(-c2ccc(N)cc2)c(F)cn2c(=O)c(C(=O)O)cc(C3CC3)c12` [Compound 7, 8-(4-amino-phenyl)-1-cyclopropyl-7-fluoro-9-methyl-4-oxo-quinolizine-3-carboxylic acid], the MIC was 1 µg/mL (≈ 2.84 µM) in the assay with S. aureus 25923 HS, 1 µg/mL (≈ 2.84 µM) in the assay with S. aureus 101, 1 µg/mL (≈ 2.84 µM) in the assay on E. cloacae 13047 and 2 µg/mL (≈ 5.68 µM) in the assay on E. faecium 19434.
Take `Cc1c(-c2cc(Cl)c(N)c(Cl)c2)ccn2c(=O)c(C(=O)O)cc(C3CC3)c12` [Compound 3, 8-(3,5-dichloro-4-amino-phenyl)-1-cyclopropyl-9-methyl-4-oxo-quinolizine-3-carboxylic acid]: in the assay with S. aureus 25923 HS, the MIC is 1 µg/mL (≈ 2.48 µM).
For the compound `Cc1c(-c2cc(F)c(N)cc2F)ccn2c(=O)c(C(=O)O)cc(C3CC3)c12` [Compound 2, 8-(3,6-difluoro-4-amino-phenyl)-1-cyclopropyl-9-methyl-4-oxo-quinolizine-3-carboxylic acid], the Synergy result in assay [3] is “partial synergy”. For the same compound, the MIC in [4] is 32 µg/mL; in assay [5] it was 8 µg/mL; in assay [6] it was 1 µg/mL; in the assay with E. faecalis 29212 it was < 8 ng/mL.
On to `C[C@H]1COc2c(N3CCN(C)CC3)c(F)cc3c(=O)c(C(=O)O)cn1c23` [Levofloxacin, reference compound], for which the “Interaction with polymyxin B, P. aeruginosa GN10” value in assay [7] is given as “No interaction”. Also, the MIC turned out to be 4 µg/mL (≈ 11.1 µM) in the assay with B. thailandensis E264; 0.5 µg/mL (≈ 1.38 µM) in the assay on A. baumannii ATCC 19606; 64 µg/mL in assay [4]; 32 µg/mL in assay [8]; 0.12 µg/mL in assay [9]; 1 µg/mL in assay [6]. Besides, the MIC with E. coli ATCC 25922 is 0.016 µg/mL (≈ 0.0443 µM); in assay [1], 0.25 µg/mL (≈ 0.692 µM); in the assay with P. aeruginosa ATCC 27853, 1 µg/mL (≈ 2.77 µM); in [2] it was 8 µg/mL (≈ 22.1 µM).

These data come from patent US10155021B2, “Antimicrobial 4-oxoquinolizines” (Emergent Product Development Gaithersburg Inc., priority 2011, dated 2018).
